How the values were obtained:
Male Sprague-Dawley Rats [1] = assay: Nephrotoxicity of Compound 100 and non-deuterated D-serine, 150 mg/kg PO (BUN, creatinine, GGT); type: in vivo
Excerpt: (§1) The pharmacokinetic profile of Compound 100 was investigated in male Sprague-Dawley rats compared with that of non-deuterated D-serine. […] Plasma was collected and analyzed for Compound 100 and non-deuterated D-Serine. Additional blood was collected and analyzed for the full clinical chemistry profile.

rats = assay: Nephrotoxicity comparison at doses from 150 mg/kg to 750 mg/kg (dose escalation); type: in vivo; conditions: for BUN / creatinine: doses from 150 mg/kg to 750 mg/kg, PO
Male Sprague-Dawley Rats [2] = assay: Nephrotoxicity dose response of non-deuterated D-serine, 30 to 300 mg/kg PO; type: in vivo; conditions: 24 hr samples, 150 and 300 mg/kg doses, versus control and reference values
Excerpt: The pharmacokinetic profile of non-deuterated D-serine was investigated in male Sprague-Dawley rats. […] Plasma was collected and analyzed for the non-deuterated D-serine. Additional blood was collected and analyzed for the full clinical chemistry profile.

[3] = molecular target: T1, human NMDAR subunits GluN1 and GluN2A (Homo sapiens, UniProt Q05586); assay: NMDA receptor activation in automated patch clamp system (ScreenPatch); type: cell-based; conditions: HEK293 cells, 0.003 to 10 μM
T1 construct: expressed in transfected cells; host or cells: HEK293
Procedure: Peak current and steady state current were measured. The activity at the NMDA receptor was indistinguishable for the two compounds.

[4] = Pharmacokinetic profile of Compound 100 versus non-deuterated D-serine, 150 mg/kg PO; type: in vivo, male Sprague-Dawley rats
Excerpt: as §1

[5] = Pharmacokinetics of deuterated and non-deuterated D-serine, PO 10 mg/kg; type: in vivo, male Sprague Dawley rats
Procedure: Three rats were used for each group. Blood was collected at the following time points: for IV dosing: pre-dose, 0.05, 0.167, 0.5, 1, 2, 4, 6, 8 and 12 hours post-dose; for PO dosing: pre-dose, 0.25, 0.5, 1, 2, 4, 6, 8 and 12 hours post-dose PO. Urine was collected at pre-dose (minimum 12 hours), 0-6, 6-12 and 12-24 hours. Plasma samples were analyzed and quantified for dosed compound LC-MS/MS.

[6] = Brain distribution of Compound 100 24 hours after a single 100 mg/kg PO dose; type: in vivo, male Sprague-Dawley rats
Procedure: The distribution profile of Compound 100 was investigated in male Sprague-Dawley rats. […] At 24 hours after dosing, tissues from perfused brain and plasma were collected and analyzed by LC-MS.

[7] = dose escalation 150 mg/kg to 750 mg/kg

SMILES | blood urea nitrogen (BUN) level (Male Sprague-Dawley Rats [1]; 8 hr and 24 hr serum samples) | creatinine level (Male Sprague-Dawley Rats [1]; 24 hr serum samples) | gamma glutamyl transferase (GGT) level (Male Sprague-Dawley Rats [1]; 24 hr serum samples) | gross signs of nephrotoxicity (rats; [7]) | BUN (rats) | creatinine (rats) | creatine level (Male Sprague-Dawley Rats [2]) | gamma glutamyl transferase (GGT) level (Male Sprague-Dawley Rats [2]) | urea nitrogen level (Male Sprague-Dawley Rats [2]) | activity at the NMDA receptor (peak current and steady state current) [3] | Cmax and AUCinf compared with non-deuterated D-serine [4] | course of concentration in hippocampus ([4]; at 24 hr) | course of concentrations in plasma and cortex ([4]; within 24 hr) | exposure as measured by AUC and Cmax, compared with non-deuterated D-serine (rats; [7]) | Tmax compared with non-deuterated D-serine [5] | concentration in the cortex compared with plasma or other brain locations [6]
N[C@H](CO)C(=O)O [Non-deuterated D-Serine, D-serine] | Elevated | Elevated | Elevated | only observed in rats receiving non-deuterated D-serine | increasingly elevated levels | increasingly elevated levels | Elevated | Elevated | Elevated | indistinguishable |  |  |  |  |  | 
[2H][C@@](N)(CO)C(=O)O [Compound 100, (2R)-2-amino-2-deutero-3-hydroxy-propanoic acid] |  |  |  | not Compound 100 | minimal changes | minimal changes |  |  |  | indistinguishable | similar | remained steady | decreased | greater | similar | greater

— patent US12029712B2 (Sun Pharmaceutical Industries, Inc., priority 2017, dated 2024)
